# How the values were obtained:
# Hela cells = assay: Hela tumor mass growth in nude mice (tumor weight, inhibition rate); type: in vivo, Balb/c nude mice; conditions: i.v. twice every week, 10 times, 8-oxodGTP 500 μg/kg/time, 5-FU 15 mg/kg/time
# Description: 5×10^6 Hela cells (200 μl) were inoculated subcutaneously into the armpit of nude mice. After growing to a certain size, the tumor mass was reinoculated subcutaneously into the armpit of 24 nude mice, which were then randomly grouped into the 5-FU positive control group, the blank carrier control group, and the 8-oxodGTP group, and on the second day after the second inoculation, these nude mice were dosed intravenously. The 5-FU group was injected at a dose of 15 mg/kg/time, the 8-oxodGTP group was injected at a dose of 500 μg/kg/time, and the carrier control group was injected at an equal volume of blank carrier reagents. The injections were performed twice every week, for a total of 10 times. After the injections, the tumor mass was taken and weighed, so as to calculate the inhibition rate (inhibition rate=(1-T experimental group/C control group)×100%).
# tumor cells = conditions: cited from earlier work
# [1] = system: melanomas, SW480 colorectal cancer and MCF7 breast cancer; conditions: cited from earlier work
Structure (SMILES),Tumor weight (Hela cells),Inhibition rate (Hela cells; vs blank carrier group),Effect of MTH1 inhibition on tumor cells (tumor cells),Effect in nude mice transplantation experiments [1]
"O=c1[nH]cc(F)c(=O)[nH]1 [5-FU, 5-fluorouracil]",988 ± 436.94 mg,18%,,
CNc1cc(-c2cccc(Cl)c2Cl)nc(N)n1 [TH287],,,selectively kill tumor cells,
Nc1nc(NC2CC2)cc(-c2cccc(Cl)c2Cl)n1 [TH588],,,selectively kill tumor cells,therapeutic effects

# — patent US10335427B2, “Tumor prevention and treatment drug and applications thereof” (priority 2016, dated 2019)
